The values below come from ChEMBL document CHEMBL4000157, “Total Synthesis of (±)-Kuwanol E” (J Nat Prod, 2016).

The assay is described as follows: Inhibition of wild type recombinant Mycobacterium tuberculosis PTPB using p-nitrophenyl phosphate as substrate preincubated for 10 mins followed by substrate addition measured for 10 mins by UV-VIS spectrophotometer.

A word on the Ki: it is the dissociation constant of the complex between target and ligand, obtained from inhibition or displacement.

SMILES strings stand for the structures.

For the compound `CC(C)=CCc1c(O)ccc(C(=O)[C@@H]2[C@@H](c3ccc(O)cc3O)CC(C)=C[C@H]2c2c(O)cc(/C=C/c3ccc(O)cc3O)cc2O)c1O`, the Ki was 1600 nM.
